The text below walks through data of ChEMBL document CHEMBL4257509, “Effect of isouronium/guanidinium substitution on the efficacy of a series of novel anti-cancer agents” (Medchemcomm, 2018).

SMILES strings stand for the structures. Active and inactive are the calls of the source. The rule behind the calls is not given here.

The species entered for one data set is Homo sapiens. As to the kind of experiment: Inhibition of ERK phosphorylation in human HL60 cells at 10 uM after 16 hrs by Western blot analysis. Format: cell-based. On the technique in general: In western blotting, separated proteins are transferred to a membrane and probed.
The subject of data set [1] is HL-60. As to the kind of experiment: Effect on total ERK expression in human HL60 cells after 16 hrs by Western blot analysis. Format: cell-based. The following applies: hl-60, 16 h.
The test system of data set [2] is MCF7. Put plainly: Cytotoxicity against human MCF7 cells after 72 hrs by alamar blue assay. Format: functional, cell-based. The following applies: MCF7, 72 h. Background: The colour change of resazurin is a common sign of viable cells or microbes.
Data set [3] has as its system MCF7. As to the kind of experiment: Inhibition of ERK phosphorylation in human MCF7 cells at 10 uM after 16 hrs by Western blot analysis. Format: cell-based.
The test system of data set [4] is MCF7. Put plainly: Effect on total ERK expression in human MCF7 cells after 16 hrs by Western blot analysis. To be noted: mcf7, 16 h. Format: cell-based.
A further data set concerns HeLa. As to the kind of experiment: Cytotoxicity against human HeLa cells after 72 hrs by alamar blue assay. Format: functional, cell-based.
The test system of data set [5] is HL-60. Put plainly: Cytotoxicity against human HL60 cells after 72 hrs by alamar blue assay. Format: functional, cell-based. To be noted: HL-60, 72 h.

On to `Cl.Cl.N=C(Nc1cccc(Oc2ccc(OC(=N)N)cc2)c1)Nc1ccc(Cl)c(C(F)(F)F)c1`, for which the inhibition result in the data set listed under Homo sapiens and in the data set with MCF7 [3] was “Active” throughout. Also, the Activity entry with HL-60 [1] and with MCF7 [4] was “Non-Toxic” in each case. Also, the 50% inhibitory concentration (IC50) amounted to 4.68 µM with MCF7 [2], 3.35 µM in the data set with HeLa and 5.49 µM with HL-60 [5].
With `CNC(=O)c1cc(Oc2ccc(NC(=O)Nc3ccc(Cl)c(C(F)(F)F)c3)cc2)ccn1` [SORAFENIB], the inhibition result in the data set listed under Homo sapiens and in the data set on MCF7 [3] was “Active” throughout. In addition, the Activity result in the data set on HL-60 [1] and in the data set with MCF7 [4] was “Non-Toxic” throughout. Moreover, the IC50 is 3.07 µM with MCF7 [2], 4.59 µM in the data set on HeLa and 2.59 µM with HL-60 [5].
Take `N=C(N)Nc1ccc(Oc2cccc(NC(=O)c3ccc(Cl)c(C(F)(F)F)c3)c2)cc1`: the IC50 was determined as 20.8 µM with MCF7 [2], 11.3 µM with HeLa and 28.2 µM in the data set with HL-60 [5].
For `N=C(N)Oc1ccc(Oc2cccc(NC(=O)c3ccc(Cl)c(C(F)(F)F)c3)c2)cc1` the same measures were 28.7 µM, 83.6 µM and 35.6 µM.
Consider `Cl.Cl.N=C(N)Nc1ccc(Oc2cccc(NC(=N)Nc3ccc(Cl)c(C(F)(F)F)c3)c2)cc1`, for which the inhibition entry in the data set listed under Homo sapiens was “inactive”. Besides, the Activity result with HL-60 [1] and in the data set with MCF7 [4] was “Non-Toxic” each time. For the same compound, the concentration for half-maximal inhibition (IC50) in the data set with MCF7 [2] came to 9.84 µM; with HeLa, 9.48 µM. Also, the inhibition entry with MCF7 [3] is “Active”.

Usually IC50 stands for the concentration that inhibits the measured activity by half. Low readings indicate inhibition by little substance, high ones a need for much substance.
